According to patent US8987474B2 (University of South Florida, priority 2006, dated 2015):

Target: Shp2 (Homo sapiens (Human), UniProt Q06124)
Test: PTP activity assay (DiFMUP substrate) with GST-Shp2
Format: biochemical
Conditions: for IC50: Table II, Shp2
From the text: All constructs were verified by DNA sequencing.
Recombinant DEP1 was from Abcam.

Chain of Shp2 (Q06124 205-593): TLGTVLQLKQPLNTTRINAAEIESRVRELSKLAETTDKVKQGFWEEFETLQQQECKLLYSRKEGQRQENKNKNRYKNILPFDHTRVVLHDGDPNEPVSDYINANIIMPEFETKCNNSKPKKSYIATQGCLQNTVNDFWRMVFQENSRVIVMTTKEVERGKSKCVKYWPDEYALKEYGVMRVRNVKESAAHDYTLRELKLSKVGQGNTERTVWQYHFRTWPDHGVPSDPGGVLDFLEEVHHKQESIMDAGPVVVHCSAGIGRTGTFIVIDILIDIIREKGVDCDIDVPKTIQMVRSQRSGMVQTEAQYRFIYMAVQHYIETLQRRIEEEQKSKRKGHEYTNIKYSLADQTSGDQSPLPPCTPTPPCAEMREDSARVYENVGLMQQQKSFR

Row | SMILES | % PTP activity (concentration not given) | % PTP activity (at 20 μM) | IC50 [µM]
1 | CN(C)CCNS(=O)(=O)c1ccc2c(c1)/C(=N/Nc1ccccc1Cl)C(=O)N2 [HL2-016-19] | 89 ± 3% (6) |  | 
2 | O=C1Nc2ccc(S(=O)(=O)NCc3cccnc3)cc2/C1=N/Nc1ccccc1Cl [HL2-016-18] | 78 ± 10% (6) |  | 
3 | O=C1Nc2ccc(S(=O)(=O)NCc3ccncc3)cc2/C1=N/Nc1ccccc1[N+](=O)[O-] [RPM145, 3-[(2-Nitrophenyl)hydrazono]-2-oxo-2,3-dihydro-1H-indole-5-sulfonic acid (pyridin-4-ylmethyl)amide] | 37 + 11% (12) |  | 
4 | COc1ccc(CNS(=O)(=O)c2ccc3c(c2)/C(=N/Nc2ccccc2[N+](=O)[O-])C(=O)N3)cc1 [RPM138, 3-[(2-Nitrophenyl)hydrazono]-2-oxo-2,3-dihydro-1H-indole-5-sulfonic acid 4-methoxybenzylamide] | 36 ± 4% (6) |  | 
5 | CNC(=O)c1ccccc1N/N=C1\C(=O)Nc2ccc(S(=O)(=O)NC(C)C)cc21 [RPM295, 2-[N′-(5-Isopropylsulfamoyl-2-oxo-1,2-dihydro-indol-3-ylidene)hydrazino]-N-methylbenzamide] |  | 43 ± 2% (2) At 20 μM | 
6 | NS(=O)(=O)c1ccc2c(c1)/C(=N/Nc1ccccc1C(=O)O)C(=O)N2 [RPM188, 2-[N′-(2-Oxo-5-sulfamoyl-1,2-dihydro-indol-3-ylidene)hydrazino]benzoic acid] |  | 65 ± 3% (3) at 20 μM | 
7 | CN(C)CCCNS(=O)(=O)c1ccc2c(c1)/C(=N/Nc1ccccc1Cl)C(=O)N2 [HL2-016-22] | 80 ± 0.7% (6) |  | 
8 | O=C1Nc2ccc(C(=O)NCc3ccc(Cl)cc3)cc2/C1=N/Nc1cccc(C(=O)O)c1 [HL2-070-9] |  | 25 ± 2% (2) at 20 μM | 
9 | CC(C)NS(=O)(=O)c1ccc2c(c1)/C(=N/Nc1cccc(C(=O)NCc3ccco3)c1)C(=O)N2 [RPM333, N-Furan-2-ylmethyl-3-[′-(5-isopropylsulfamoyl-2-oxo-1,2-dihydro-indol-3-ylidene)hydrazino]benzamide] |  | 48 ± 9% (2) at 20 μM | 33 to 100
10 | O=C1Nc2ccc(S(=O)(=O)NCc3ccco3)cc2/C1=N/Nc1ccccc1Cl [HL2-016-11] | 55 ± 7% (6) |  | 
11 | O=C1Nc2ccc(S(=O)(=O)NCc3ccncc3)cc2/C1=N/Nc1ccccc1Cl [HL2-016-15] | 48 ± 5% (6) |  | 
12 | O=C1Nc2ccc(S(=O)(=O)NCc3ccc(Cl)cc3)cc2/C1=C/Nc1ccccc1[N+](=O)[O-] [RPM310] |  | 66.20% (1) At 20 μM | 
13 | CN(C)S(=O)(=O)c1ccc2c(c1)/C(=N/Nc1ccccc1[N+](=O)[O-])C(=O)N2Cc1ccccc1 [RPM156] | 34 ± 4% (12) |  | 
14 | CCN(CC)C(=O)c1ccc2c(c1)/C(=N/Nc1cccc(C(=O)O)c1)C(=O)N2 [HL2-070-2] |  | 57.16% (1) at 20 μM | 
15 | CN(Cc1ccccc1)S(=O)(=O)c1ccc2c(c1)/C(=N/Nc1ccccc1[N+](=O)[O-])C(=O)N2 [RPM136, 3-[(2-Nitrophenyl)hydrazono]-2-oxo-2,3-dihydro-1H-indole-5-sulfonic acid benzyl-methylamide] | 39 ± 8% (12) |  | 
16 | CC(C)NS(=O)(=O)c1ccc2c(c1)/C(=N/Nc1cccc(C(=O)NCCN3CCOCC3)c1)C(=O)N2 [RPM334, 3-[N′-(5-Isopropylsulfamoyl-2-oxo-1,2-dihydro-indol-3-ylidene)hydrazino]-N-(2-morpholin-4-yl-ethyl)benzamide] |  | 39 ± 5% (2) at 20 μM | 
17 | CCOC(=O)c1cccc(N/C=C2\C(=O)Nc3ccc(S(=O)(=O)NC(C)C)cc32)c1 [RPM302, 3-[(5-Isopropylsulfamoyl-2-oxo-1,2-dihydro-indol-3-ylidenemethyl)amino]benzoic acid ethyl ester] |  | 51 ± 7% (2) at 20 μM | 33 to 100
18 | COCCNS(=O)(=O)c1ccc2c(c1)/C(=N/Nc1ccccc1[N+](=O)[O-])C(=O)N2 [RPM171, 3-[(2-Nitrophenyl)hydrazono]-2-oxo-2,3-dihydro-1H-indole-5-sulfonic acid (2-methoxyethyl)amide] | 44 ± 8% (12) |  | 
19 | CCCNS(=O)(=O)c1ccc2c(c1)/C(=N/Nc1ccccc1[N+](=O)[O-])C(=O)N2 [RPM170, 3-[(2-Nitrophenyl)-hydrazono]-2-oxo-2,3-dihydro-1H-indole-5-sulfonic acid propylamide] | 43 ± 8% (12) |  | 
20 | CN1C(=O)/C(=N\Nc2ccccc2[N+](=O)[O-])c2cc(S(=O)(=O)N(C)C)ccc21 [RPM154] | 73 ± 3% (6) |  | 
21 | O=C1Nc2ccc(S(=O)(=O)O)cc2/C1=N/Nc1ccccc1 [RPM215, 2-Oxo-3-(phenylhydrazono)-2,3-dihydro-1H-indole-5-sulfonic acid] |  | 51 ± 3% (3) at 20 μM | 
22 | CC(C)NS(=O)(=O)c1ccc2c(c1)/C(=N/Nc1ccccc1C(=O)NCCN1CCOCC1)C(=O)N2 [RPM293, 2-[N′-(5-Isopropylsulfamoyl-2-oxo-1,2-dihydro-indol-3-ylidene)hydrazino]-N-(2-morpholin-4-yl-ethyl)benzamide] |  | 49 ± 6% (2) At 20 μM | 
23 | O=C1Nc2ccc(S(=O)(=O)O)cc2/C1=N/Nc1ccccc1F [RPM220, 2-Oxo-3-[(2-fluorophenylhydrazono)]-2,3-dihydro-1H-indole-5-sulfonic acid] |  | 73 ± 10% (3) at 20 μM | 
24 | O=C1Nc2ccc(C(=O)O)cc2/C1=N/Nc1ccccc1F [RPM319] |  | 49 ± 4% (2) At 20 μM | > 100

Row | SMILES | % PTP activity (concentration not given) | % PTP activity (at 20 μM) | IC50 [µM]
25 | CC(C)NS(=O)(=O)c1ccc2c(c1)/C(=N/Nc1ccccc1)C(=O)N2 [RPM275, 3-(Phenylhydrazono)-2-oxo-2,3-dihydro-1H-indole-5-sulfonic acid isopropylamide] |  | 58.53% (1) at 20 μM | 
26 | O=C1Nc2ccccc2/C1=N/Nc1cccc([N+](=O)[O-])c1 [HL1-050-2] | 32 ± 3% (3) |  | 
27 | CC(C)NS(=O)(=O)c1ccc2c(c1)/C(=N/Nc1ccccc1C(=O)NCc1ccco1)C(=O)N2 [RPM292, N-Furan-2-ylmethyl-2-[N′-(5-isopropylsulfamoyl-2-oxo-1,2-dihydro-indol-3-ylidene)hydrazino]benzamide] |  | 47 ± 7% (20 At 20 μM | 33 to 100
28 | CC(C)NS(=O)(=O)c1ccc2c(c1)/C(=N/Nc1cccc(C(=O)NCCN(C)C)c1)C(=O)N2 [RPM326, N-(2-Dimethylamino-ethyl)-3-[N′-(5-isopropylsulfamoyl-2-oxo-1,2-dihydro-indol-3-ylidene)hydrazino]benzamide] |  | 57 + 13% (2) at 20 μM | 
29 | CC(C)NS(=O)(=O)c1ccc2c(c1)/C(=N/Nc1ccccc1C(N)=O)C(=O)N2 [RPM283, 2-[N′-(5-Isopropylsulfamoyl-2-oxo-1,2-dihydro-indol-3-ylidene)hydrazino]benzamide] |  | 52 ± 7% (2) At 20 μM | 
30 | O=C1Nc2ccc(S(=O)(=O)O)cc2/C1=N/Nc1cccc([N+](=O)[O-])c1 [HL1-058-2] | 73 ± 7% (3) |  | 33 to 100
31 | COCCNS(=O)(=O)c1ccc2c(c1)/C(=N/Nc1ccccc1Cl)C(=O)N2 [HL2-016-12] | 32 ± 3% (6) |  | 
32 | CN(C)CCCNS(=O)(=O)c1ccc2c(c1)/C(=N/Nc1ccccc1[N+](=O)[O-])C(=O)N2 [HL2-016-21] | 77 ± 2% (6) |  | 
33 | COc1ccc(CNS(=O)(=O)c2ccc3c(c2)/C(=N/Nc2ccccc2Cl)C(=O)N3)cc1 [HL2-016-3] | 84 ± 24% (6) |  | 
34 | CC(C)NC(=O)c1ccc2c(c1)/C(=N/Nc1cccc(C(=O)O)c1)C(=O)N2 [HL2-070-7] |  | 53.62% (1) at 20 μM | 
35 | O=C1Nc2ccc(C(=O)NCc3ccc(Cl)cc3)cc2/C1=N/Nc1ccccc1C(=O)O [HL2-070-4] |  | 30 ± 4% (2) at 20 μM | 
36 | O=C(O)c1ccc2[nH]cc(C(=O)c3ccccc3)c2c1 [RPM352, 3-Benzoyl-1H-indole-5-carboxylic acid] |  | 57 ± 9% (2) at 20 μM | 
37 | CC(C)NS(=O)(=O)c1ccc2c(c1)/C(=C/Nc1ccccc1C(=O)O)C(=O)N2 [RPM336, 2-[(5-Isopropylsulfamoyl-2-oxo-1,2-dihydro-indol-3-ylidenemethyl)amino]benzoic acid] |  | 48 ± 7% (2) at 20 μM | 33 to 100
38 | COC(=O)c1ccc2cc(C(=O)Nc3ccc(C(=O)O)cc3)ccc2c1 [RPM185] |  | 71 ± 3% (3) at 20 uM | 
39 | CC(C)NS(=O)(=O)c1ccc2c(c1)/C(=N/Nc1cccc(C(N)=O)c1)C(=O)N2 [RPM325, 3-[N′-(5-Isopropylsulfamoyl-2-oxo-1,2-dihydro-indol-3-ylidene)hydrazino]benzamide] |  | 40 + 4% (2) at 20 μM | 33 to 100
40 | O=C1Nc2ccc(S(=O)(=O)O)cc2/C1=N/Nc1cc(Cl)ccc1Cl [RPM225, 2-Oxo-3-[(2,5-dichlorophenylhydrazono)]-2,3-dihydro-1H-indole-5-sulfonic acid] |  | 73 ± 22% at 20 μM | 33 to 100
41 | CNC(=O)c1cccc(N/N=C2\C(=O)Nc3ccc(S(=O)(=O)NC(C)C)cc32)c1 [RPM330, 3-[N′-(5-Isopropylsulfamoyl-2-oxo-1,2-dihydro-indol-3-ylidene)hydrazino]-N-methylbenzamide] |  | 47 ± 1% (2) at 20 μM | 
42 | NS(=O)(=O)c1ccc(NC(=O)c2ccc3cc(C(=O)O)ccc3c2)cc1 [RPM195] |  | 54 ± 6% (3) at 20 uM | 
43 | O=C1Nc2ccc(C(=O)O)cc2/C1=N/Nc1ccccc1 [RPM272, 3-(Phenylhydrazono)-2-oxo-2,3-dihydro-1H-indole-5-carboxylic acid] |  | 43 ± 4% at 20 μM | 
44 | CCNC(=O)c1ccccc1N/N=C1\C(=O)Nc2ccc(S(=O)(=O)NC(C)C)cc21 [RPM296, N-Ethyl-2-[N′-(5-isopropylsulfamoyl-2-oxo-1,2-dihydro-indol-3-ylidene)hydrazino]benzamide] |  | 48 ± 2% (2) At 20 μM | 
45 | CCN(CC)C(=O)c1ccc2c(c1)/C(=N/Nc1ccccc1[N+](=O)[O-])C(=O)N2 [HL2-070-3] |  | 14 ± 2% (2) at 20 μM | 
46 | CCc1ccccc1N/N=C1\C(=O)Nc2ccc(S(=O)(=O)O)cc21 [RPM219, 2-Oxo-3-[(2-ethylphenylhydrazono)]-2,3-dihydro-1H-indole-5-sulfonic acid] |  | 89 ± 2% (3) at 20 μM | 33 to 100
47 | O=C(O)c1cccc(NC(=O)c2ccc3cc(C(=O)O)ccc3c2)c1 [HL2-022-1] | 53 ± 4% (6) |  | 
